Values after ≈ are worked out from the molar mass of the structure shown.
Key:
Staphylococcus aureus [1] = test: Antimicrobial activity against community-acquired methicillin-resistant Staphylococcus aureus Panton-Valentine leukocidin positive by time-kill methodology; type: functional
Staphylococcus aureus [2] = test: Antimicrobial activity against methicillin-susceptible Staphylococcus aureus by time-kill methodology
Staphylococcus aureus [3] = test: Antimicrobial activity against community-acquired methicillin-resistant Staphylococcus aureus Panton-Valentine leukocidin negative by time-kill methodology; type: functional
Staphylococcus aureus [4] = test: Antimicrobial activity against vancomycin-intermediate Staphylococcus aureus by time-kill methodology; type: functional
Staphylococcus aureus [5] = test: Antimicrobial activity against nosocomially-acquired methicillin-resistant Staphylococcus aureus by time-kill methodology; type: functional
Staphylococcus aureus [6] = test: Antimicrobial activity against vancomycin-resistant Staphylococcus aureus by time-kill methodology; type: functional

Compound | MIC (Staphylococcus aureus [1]) [µg/mL] | MIC (Staphylococcus aureus [2]) [µg/mL] | MIC (Staphylococcus aureus [3]) [µg/mL] | MIC (Staphylococcus aureus [4]) [µg/mL] | MIC (Staphylococcus aureus [5]) [µg/mL] | MIC (Staphylococcus aureus [6]) [µg/mL]
CCCCCCCCCC(=O)N[C@@H](Cc1c[nH]c2ccccc12)C(=O)N[C@H](CC(N)=O)C(=O)N[C@@H](CC(=O)O)C(=O)N[C@@H]1C(=O)NCC(=O)N[C@@H](CCCN)C(=O)N[C@@H](CC(=O)O)C(=O)N[C@H](C)C(=O)N[C@@H](CC(=O)O)C(=O)NCC(=O)N[C@H](CO)C(=O)N[C@@H]([C@H](C)CC(=O)O)C(=O)N[C@@H](CC(=O)c2ccccc2N)C(=O)O[C@@H]1C | 0.5 (≈ 0.309 µM) | 0.25 (≈ 0.154 µM) | 0.5 (≈ 0.309 µM) | 2 (≈ 1.23 µM) | 0.25 (≈ 0.154 µM) | 0.25 (≈ 0.154 µM)
CO[C@H]1/C=C/O[C@@]2(C)Oc3c(C)c(O)c4c(O)c(c(/C=N/N5CCN(C)CC5)c(O)c4c3C2=O)NC(=O)/C(C)=C\C=C\[C@H](C)[C@H](O)[C@@H](C)[C@@H](O)[C@@H](C)[C@H](OC(C)=O)[C@@H]1C [RIFAMPIN] | 0.004 (≈ 0.00486 µM) | 0.008 (≈ 0.00972 µM) | 0.016 (≈ 0.0194 µM) | 0.016 (≈ 0.0194 µM) | 0.004 (≈ 0.00486 µM) | 0.008 (≈ 0.00972 µM)
GENTAMICIN | 1 | – | 1 | 1 | 1 | 64

Source: ChEMBL document CHEMBL1145539 (2007)
